Source: publication PMC3927474, “Whole body synthesis rates of DHA from α-linolenic acid are greater than brain DHA accretion and uptake rates in adult rats” (Journal of Lipid Research, 2014)
“And” between values parts separate entries of the source, which are not always exact repeats. Equal values may be shown once. Marks after values point to notes of the source that are not given here.

What was measured:
[1] = Balance study: n-3 and n-6 PUFA balance (intake, excretion, accretion, metabolic consumption); type: in vivo, rat; conditions: for Fecal excretion: mean % excretion applied to intake; for Fecal excretion / Metabolic consumption of dietary PUFAs: DHA group: refers to DHA; for Dietary PUFA excreted in the feces: 24 h feces at 8 weeks postweaning, percentage of intake; for Metabolic consumption of dietary PUFAs: n-3 PUFA, Eq. 1, 15 weeks
Method: All procedures were performed in accordance with the policies set out by the Canadian Council on Animal Care and were approved by the Animal Ethics Committee at the University of Toronto. Three Long Evans dams each with 18-day-old male Long Evans pups were ordered from Charles River Laboratories (St. Constant, QC, Canada). Pups were nonlittermates and each dam was housed with pups. Upon arrival, dams were allocated to one of the three diets (described below). When the pups were 21 days old, two pups from each dam were euthanized by high-energy head-focused microwave fixation (4.5 kW for 0.9 s). Brains were removed immediately and stored at -80°C until lipid analysis. Bodies were also stored at -80°C immediately after euthanization until analysis. The brains and bodies of these pups were used to determine the PUFA content of the rats at weaning (i.e., baseline PUFA content). […] For the balance study, the rats were weighed, food intake was determined, and uneaten food was replaced with fresh food on a weekly basis. Rats were euthanized by CO2 asphyxiation. Brains were removed and dissected sagittally. Carcasses and one half brain per rat were stored immediately at -80°C (to be later analyzed for lipid content). […] For the steady-state infusion study and the brain DHA uptake study, a jugular vein catheter was surgically implanted into the rats. […] Carcasses were thawed overnight in a refrigerator at 3°C, cut into pieces, and passed through a #12 hand grinder. After the whole body had passed through the grinder once, the homogenate was mixed together by hand and passed at least one more time through the grinder until the mixture was sufficiently homogeneous. Due to the small size of the pups all of the 21-day-old pup bodies were passed through the grinder together. […] New chloroform was added to the remaining aqueous phase, the mixture was once again centrifuged, and the chloroform layer was extracted and added to the previously extracted chloroform layer. […] One hemisphere was thawed briefly and dissected over ice to separate the brainstem, cerebellum, cortex, hippocampus, striatum, and the rest of the brain. […] The homogenizer was then washed with methanol, which was then transferred to the test tube containing the homogenized brain and KCl. […] The chloroform layer was extracted and new chloroform was added to the aqueous phase. […] At 8 weeks postweaning all the feces produced by a rat in 24 h were collected. […] Mean PUFA excretion (percentage of intake) was determined and applied to all animals to determine PUFA excretion. […] Nu-Check Prep, Elysian, MN) was added to the TLE. […] Samples were injected in […] mode. The injector and detector ports were set at 250°C. […] The carrier gas was helium, set to a constant flow rate of 0.7 ml/min. Peaks were identified by retention times of authentic FAME standards (Nu-Chek Prep). […] The concentrations were expressed on a per gram basis then multiplied by total weight of the tissue to determine the total amount of each fatty acid in the tissue.

[2] = rats; cited from earlier work
[3] = Whole body fatty acids by GC-FID, balance study; type: in vivo, rat; conditions: 15 wk diet
Method: Carcasses were thawed overnight in a refrigerator at 3°C, cut into pieces, and passed through a #12 hand grinder. After the whole body had passed through the grinder once, the homogenate was mixed together by hand and passed at least one more time through the grinder until the mixture was sufficiently homogeneous. Due to the small size of the pups all of the 21-day-old pup bodies were passed through the grinder together.
A portion of the whole body homogenate was weighed and further homogenized (done in duplicate for each 18-week-old rat and the baseline homogenate) using a Polytron benchtop homogenizer (Brinkman Instruments, Toronto, ON, Canada) in a mixture of chloroform:methanol:0.88%KCl (2:1:0.8 by volume) ([28]). The mixture was centrifuged at 500 g for 10 min, and the chloroform layer was extracted. New chloroform was added to the remaining aqueous phase, the mixture was once again centrifuged, and the chloroform layer was extracted and added to the previously extracted chloroform layer. This total lipid extract (TLE) was evaporated under N2, reconstituted in a known volume of chloroform, and stored under N2 at −80°C until further analysis.
A known amount of heptadecanoic acid (17:0; Nu-Check Prep, Elysian, MN) was added to the TLE. Samples were transmethylated using 14% boron trifluoride in methanol at 100°C for 1 h. Fatty acid methyl esters (FAMEs) were extracted with hexane and quantified using GC-FID. FAMEs were analyzed using a Varian-430 gas chromatograph (Varian, Lake Forest, CA) equipped with a Varian FactorFour capillary column (VF-23ms; 30 m × 0.25 mm interior diameter × 0.25 μm film thickness) and a FID. Samples were injected in splitless mode. The injector and detector ports were set at 250°C. […] The carrier gas was helium, set to a constant flow rate of 0.7 ml/min. Peaks were identified by retention times of authentic FAME standards (Nu-Chek Prep). The concentration of each fatty acid was calculated by comparison with the internal standard (17:0) ([29]). The concentrations were expressed on a per gram basis then multiplied by total weight of the tissue to determine the total amount of each fatty acid in the tissue.

[4] = average over 15 weeks, listed as DHA diet

CC/C=C\C/C=C\C/C=C\CCCCCCCC(=O)O [ALA, α-linolenic acid]
Fecal Excretion of LNA ([1]; 15 weeks): 877 µmol
Metabolic consumption of dietary PUFA (n-6) ([1]; 15 weeks): 147161 µmol
Fecal excretion ([1]; 15 weeks): 57 ± 2 µmol
Body Content of n-6 PUFA, Day 105 ([1]; 15 wk diet): 29170 µmol
Brain Content of n-6 PUFA, Day 105 ([1]; 15 wk diet): 20 µmol
Total Accretion: 18:3n-6 ([1]; 15 wk diet): 52 µmol
Total Accretion: 20:2n-6 ([1]; 15 wk diet): 169 µmol
Total Accretion: 22:4n-6 ([1]; 15 wk diet): 138 µmol
Total Accretion: ARA ([1]; 15 wk diet): 1806 µmol
Total Accretion: LNA ([1]; 15 wk diet): 25157 µmol
Total Accretion: Total n-6 PUFA ([1]; 15 wk diet): 27489 µmol
Body content of n-3 PUFAs, Day 105 ([1]; 15 wk diet, n = 11): 2352 ± 166^b μmol
Brain content of n-3 PUFAs, Day 105 ([1]; 15 wk diet, n = 11): 14 ± 2^b μmol
Dietary PUFA excreted in the feces [1]: 0.27 ± 0.002%
Brain DHA accretion rate (balance study) ([1]; average over 15 weeks): 0.032 ± 0.005 µmol/day
Total DHA synthesis-accretion rate (balance study) ([1]; average over 15 weeks, body + brain, listed as ALA diet): 4.2 µmol/day and 4.2 ± 0.4 µmol/day
DHA synthesis and accretion in ALA-fed rats relative to brain DHA accretion of DHA-fed rats ([1]; balance study): 100 fold
Dietary ALA metabolically consumed ([1]; balance study): approximately 90%
Body Content of n-6 PUFA, Day 0 ([1]; baseline): 1491 µmol
Brain Content of n-6 PUFA, Day 0 ([1]; baseline): 14 µmol
Body content of n-3 PUFAs, Day 0 ([1]; baseline, 21-day-old pups, n = 2): 139 ± 3 µmol
Brain content of n-3 PUFAs, Day 0 ([1]; baseline, n = 2): 10 ± 0.6 µmol
Total accretion: 20:3n-3 ([1]; body + brain, 15 wk diet): 110 ± 11^ab μmol
Total accretion: ALA ([1]; body + brain, 15 wk diet): 1500 ± 100^b μmol
Total accretion: DHA ([1]; body + brain, 15 wk diet): 440 ± 39^b μmol
Total accretion: DPAn-3 ([1]; body + brain, 15 wk diet): 90 ± 7^b μmol
Total accretion: EPA ([1]; body + brain, 15 wk diet): 70 ± 10^b μmol
Total accretion: Total n-3 PUFA ([1]; body + brain, 15 wk diet): 2209 ± 107^b μmol
Metabolic consumption of dietary PUFAs [1]: 19037 ± 617^b μmol
DHA synthesis rate from ALA (steady-state infusion) [2]: 9.8 µmol/day
Whole body fatty acids: 12:0 [3]: 23532 µmol
Whole body fatty acids: 14:0 [3]: 17606 µmol
Whole body fatty acids: 14:1n-7 [3]: 1331 µmol
Whole body fatty acids: 16:0 [3]: 44604 µmol
Whole body fatty acids: 16:1n-7 [3]: 16111 µmol
Whole body fatty acids: 18:0 [3]: 6101 µmol
Whole body fatty acids: 18:1n-7 [3]: 7553 µmol
Whole body fatty acids: 18:1n-9 [3]: 38781 µmol
Whole body fatty acids: 18:2n-6 [3]: 29104 µmol
Whole body fatty acids: 18:3n-3 [3]: 1557 µmol
Whole body fatty acids: 18:3n-6 [3]: 67 µmol
Whole body fatty acids: 20:1n-9 [3]: 189 µmol
Whole body fatty acids: 20:2 [3]: 194 µmol
Whole body fatty acids: 20:3n-3 [3]: 137 µmol
Whole body fatty acids: 22:4n-6 [3]: 155 µmol
Whole body fatty acids: 22:5n-3 [3]: 101 µmol
Whole body fatty acids: 22:5n-6 [3]: 124 µmol
Whole body fatty acids: ARA (20:4n-6) [3]: 1954 µmol
Whole body fatty acids: DHA (22:6n-3) [3]: 481 µmol
Whole body fatty acids: EPA (20:5n-3) [3]: 76 µmol

CC/C=C\C/C=C\C/C=C\C/C=C\C/C=C\C/C=C\CCC(=O)O [DHA, Docosahexaenoic acid]
Metabolic consumption of dietary PUFA (n-6) ([1]; 15 weeks): 157517 µmol
Fecal excretion ([1]; 15 weeks): 10 ± 0.4 µmol
Body Content of n-6 PUFA, Day 105 ([1]; 15 wk diet): 32391 µmol
Brain Content of n-6 PUFA, Day 105 ([1]; 15 wk diet): 17 µmol
Total Accretion: 18:3n-6 ([1]; 15 wk diet): 41 µmol
Total Accretion: 20:2n-6 ([1]; 15 wk diet): 167 µmol
Total Accretion: 22:4n-6 ([1]; 15 wk diet): 97 µmol
Total Accretion: ARA ([1]; 15 wk diet): 1539 µmol
Total Accretion: LNA ([1]; 15 wk diet): 28810 µmol
Total Accretion: Total n-6 PUFA ([1]; 15 wk diet): 30720 µmol
Dietary PUFA excreted in the feces [1]: 0.07 ± 0.02%
Brain DHA accretion rate (balance study) ([1]; average over 15 weeks): 0.042 ± 0.007 µmol/day
Brain DHA accretion rate (balance study) [1, 4]: 0.042 µmol/day
DHA uptake and accretion rate into the brain (balance study) [1, 4]: 42 nmol/day and 42 ± 7 nmol/day
Brain Content of n-6 PUFA, Day 0 ([1]; baseline): 14 µmol
Total accretion: DHA ([1]; body + brain, 15 wk diet): 1119 ± 62^c μmol
Metabolic consumption of dietary PUFAs [1]: 15783 ± 548^b,** μmol
